The values below come from US11224565B2, “N-acyldipeptide derivatives and their uses” (NeoStrata Company, Inc., priority 2011, dated 2022).

The structures appear in SMILES notation. Peptide text beside a SMILES is read from it.

The subject of this assay is MB231 breast cancer cells. Put plainly: In vitro screen for anti-tumor effects: proliferation of MB231 cells (MTS). The format is cell-based. The following applies: 20 μg/ml, end of 3 days of incubation, MTS absorbance at 490 nm vs water control. As to the method:
A typical in vitro screen for anti-tumor or anti-cancer effects was carried out as follows.
An aliquot of 2,000 MB231 breast cancer cells (breast carcinoma cells) in 100 μl DMEM complete media (Sigma Chemical Co.) was plated in a 96 well plate containing at a concentration of 20 μg/ml a test substance or control water. To measure proliferation of the cancer cells, an aliquot of 20 μl of MTS reagent (Promega Co.) was added to each well and the cells were incubated at […] for a total of three days. The cells rapidly metabolized MTS reagent and the metabolized MTS reagent was measured at 490 nm at the end of days 1, 2 and 3. The reading was proportional to the number of cancer cells. The decrease in absorbance at each time point indicated fewer cancer cells. At the end of day 3, the decrease in absorbance with respect to the control indicated the inhibition by the test substance.

In the case of `CC(=O)N[C@H](C(=O)N[C@@H](C)C(N)=O)C(C)C` [N-Ac-L-Val-L-Ala-NH2] (Ac-Val-Ala-NH2), the “inhibition of the growth of breast cancer cells” value is reported as “approximately 12%”.
